According to patent US20260027096A1, “PHD INHIBITORS” (Oxford University Innovation Limited, priority 2023, published 2026):

Biological target: PHD2 (Homo sapiens (Human), UniProt Q9GZT9)
Assay: PHD2 RF-MS (RapidFire LC-MS) hydroxylation assay
Assay type: biochemical
Experimental: In brief, cDNA encoding for the catalytic domain of tPHD2 (181-426 residues) was cloned into the pET28a (+)/pET24a (+) vectors (Novagen), to enable production of tPHD2 (residues 181-426) protein with/without an N-terminal His6-tag. The tPHD2 (residues 181-426) encoding construct was transformed into the Escherichia coli BL21 DE3 cell line; protein production was induced with 0.5 mM […] (3-5 hr at 28° C.). […] The protein was exchanged into 50 mM Tris-HCl buffer (pH 7.5) and concentrated to % 40 mg/ml.
Tris(hydroxymethyl)aminomethane was from Fisher. Ferrous ammonium sulfate (FAS), 2-oxoglutarate (2OG) and L-ascorbic acid were from Sigma Aldrich; solutions of these were prepared freshly each day. All inhibition assays were carried out in 384-well polypropylene plates (Greiner Bio-One). PHD2 assays were performed in assay buffer (50 mM Tris. Cl pH 7.5, 50 mM NaCl). […] The final assay concentration of DMSO was kept constant at 0.5%. PHD2 protein was prepared at a concentration of 300 nM in assay buffer and 25 μl dispensed across each 384-well assay plate. The PHD2 solution was allowed to equilibrate with the inhibitors for 15 minutes at room temperature; the enzyme reaction then initiated by dispense of 25 μl of substrate (20 μM FAS, 200 µM L-ascorbic acid, 10 μM CODD peptide and 20 μM 2OG in the assay buffer. Enzyme reactions were allowed to proceed for 20 minutes at room temperature and the reaction terminated by addition of 10% formic acid (5 μl). Assay plates were then transferred to a RapidFire RF360 sampling robot (Agilent) connected to an Agilent 6530 accurate mass quadrupole-time-of-flight (Q-TOF) mass spectrometer. Assay samples were aspirated under vacuum and loaded onto a C4 solid phase extraction (SPE) cartridge. After loading the C4 SPE was washed with 0.1% formic acid in water to remove non-volatile buffer salts and then peptide was eluted from the SPE with 85% acetonitrile, 15% water containing 0.1% formic acid onto the mass spectrometer. Peptide charge states were monitored in positive mode. Ion chromatogram data were extracted for the +2 charge state and peak area data integrated using RapidFire Integrator software (Agilent). % conversion of the CODD peptide substrate to the +16 hydroxylated peptide was calculated using the equation: % conversion=100×hydroxylated/(hydroxylated+non-hydroxylated peptide). IC50 values were determined from non-linear regression plots using GraphPad prism.
Example 158—Structure activity relationship (SAR) studies for PHD inhibition SAR studies for PHD inhibition were carried out on the compounds of the invention. Compounds were screened against PHD2 using the RF-MS hydroxylation assay.

PHD2, sequence (Q9GZT9 181-426): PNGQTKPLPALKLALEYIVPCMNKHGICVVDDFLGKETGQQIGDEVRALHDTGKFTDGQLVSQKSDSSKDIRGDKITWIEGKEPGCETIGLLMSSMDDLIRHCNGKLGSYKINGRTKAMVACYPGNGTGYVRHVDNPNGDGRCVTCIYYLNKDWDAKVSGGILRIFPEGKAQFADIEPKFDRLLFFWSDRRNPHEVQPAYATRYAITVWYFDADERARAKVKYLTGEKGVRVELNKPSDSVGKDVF

| IC50 [nM] | SMILES |
| --- | --- |
| > 10000 | O=C(NCc1ccc(-c2ccccc2)cc1)c1ccc(-n2cccn2)cc1O [Compound 16, N-([1,1′-biphenyl]-4-ylmethyl)-2-hydroxy-4-(1H-pyrazol-1-yl)benzamide] |
| > 10000 | O=C(NCc1ccc(-c2ccccc2)cc1)c1cnc(-n2cccn2)nc1 [Compound 20, N-([1,1′-Biphenyl]-4-ylmethyl)-2-(1H-pyrazol-1-yl)pyrimidine-5-carboxamide] |
| > 10000 | O=C(NCc1ccc(-c2ccccc2)cc1)c1ccc(-n2cccn2)nc1 [Compound 22, N-([1,1′-Biphenyl]-4-ylmethyl)-6-(1H-pyrazol-1-yl) nicotinamide] |
| 1 to 1000 | O=C(NCc1ccc(-c2ccccc2)cc1)c1cnc(-n2cccn2)cc1O [Compound 41, N-([1,1′-Biphenyl]-4-ylmethyl)-4-hydroxy-6-(1H-pyrazol-1-yl) nicotinamide] |
| 1 to 1000 | O=C(Nc1ccc(-c2ccccc2)cc1)c1cnc(-n2cccn2)cc1O [Compound 42, N-([1,1′-Biphenyl]-4-yl)-4-hydroxy-6-(1H-pyrazol-1-yl) nicotinamide] |
| 1000 to 10000 | O=C(NCc1cccc(C(F)(F)F)c1)c1cnc(-n2cccn2)cc1O [Compound 43, 4-Hydroxy-6-(1H-pyrazol-1-yl)-N-(3-(trifluoromethyl)benzyl) nicotinamide] |
| 1 to 1000 | O=C(NCc1ccc(C(F)(F)F)cc1)c1cnc(-n2cccn2)cc1O [Compound 64, 4-Hydroxy-6-(1H-pyrazol-1-yl)-N-(4-(trifluoromethyl)benzyl) nicotinamide] |
| 1 to 1000 | O=C(Nc1cccc(-c2ccccc2)c1)c1cnc(-n2cccn2)cc1O [Compound 66, N-([1,1′-Biphenyl]-3-yl)-4-hydroxy-6-(1H-pyrazol-1-yl) nicotinamide] |
| 1000 to 10000 | O=C(NCc1cccc(-c2ccccc2)c1)c1cnc(-n2cccn2)c(O)c1 [Compound 76, N-([1,1′-Biphenyl]-3-ylmethyl)-5-hydroxy-6-(1H-pyrazol-1-yl) nicotinamide] |
| 1 to 1000 | N#Cc1cnn(-c2cc(O)c(C(=O)NCc3ccc(C(F)(F)F)cc3)cn2)c1 [Compound 89, 6-(4-Cyano-1H-pyrazol-1-yl)-4-hydroxy-N-(4-(trifluoromethyl)benzyl) nicotinamide] |
| 1000 to 10000 | O=C(NCc1ccc(-c2ccccc2)cc1)c1cnn(-c2cc(O)c(C(=O)O)cn2)c1 [Compound 96, 6-(4-(([1,1′-Biphenyl]-4-ylmethyl)carbamoyl)-1H-pyrazol-1-yl)-4-hydroxynicotinic acid] |
| 1000 to 10000 | O=C(NCc1cccc(-c2ccccc2)c1)c1cnn(-c2cc(O)ccn2)c1 [Compound 109, N-([1,1′-Biphenyl]-3-ylmethyl)-1-(4-hydroxypyridin-2-yl)-1H-pyrazole-4-carboxamide] |

More lines, now with the values behind:

| SMILES | IC50 [nM] |
| --- | --- |
| O=C(O)c1cnn(-c2ccc(C(=O)NCc3ccc(-c4ccccc4)cc3)cn2)c1 [Compound 31, 1-(5-(([1,1′-Biphenyl]-4-ylmethyl)carbamoyl)pyridine-2-yl)-1H-pyrazole-4-carboxylic acid] | 1 to 1000 |
| O=C(O)c1cnn(-c2ccc(C(=O)NCc3ccccc3)cn2)c1 [Compound 32, 1-(5-(Benzylcarbamoyl)pyridin-2-yl)-1H-pyrazole-4-carboxylic acid] | 1000 to 10000 |
| O=C(NCC1CCCCC1)c1cnc(-n2cccn2)cc1O [Compound 44, N-(Cyclohexylmethyl)-4-hydroxy-6-(1H-pyrazol-1-yl) nicotinamide] | > 10000 |
| O=C(NCc1cccc(-c2ccccc2)c1)c1cnc(-n2cccn2)cc1O [Compound 65, N-([1,1′-Biphenyl]-3-ylmethyl)-4-hydroxy-6-(1H-pyrazol-1-yl) nicotinamide] | 1 to 1000 |
| O=C(NCc1ccc(OC(F)(F)F)cc1)c1cnc(-n2cccn2)cc1O [Compound 67, 4-Hydroxy-6-(1H-pyrazol-1-yl)-N-(4-(trifluoromethyloxy)benzyl) nicotinamide] | 1 to 1000 |
| O=C(NCc1ccc(-c2ccccc2)nc1)c1cnc(-n2cccn2)cc1O [Compound 69, 4-Hydroxy-N-((6-phenylpyridin-3-yl)methyl)-6-(1H-pyrazol-1-yl) nicotinamide] | 1 to 1000 |
| O=C(NCc1ccc(-c2ccccc2)cc1)c1cnc(-n2cccn2)c(O)c1 [Compound 75, N-([1,1′-Biphenyl]-4-ylmethyl)-5-hydroxy-6-(1H-pyrazol-1-yl) nicotinamide] | 1000 to 10000 |
| O=C(O)c1cnn(-c2cc(O)c(C(=O)NCc3ccc(-c4ccccc4)cc3)cn2)c1 [Compound 84, 1-(5-(([1,1′-Biphenyl]-4-ylmethyl)carbamoyl)-4-hydroxypyridin-2-yl)-1H-pyrazole-4-carboxylic acid] | 1 to 1000 |
| N#Cc1cnn(-c2cc(O)c(C(=O)NCc3ccc(-c4ccccc4)cc3)cn2)c1 [Compound 85, N-([1,1′-Biphenyl]-4-ylmethyl)-6-(4-cyano-1H-pyrazol-1-yl)-4-hydroxynicotinamide] | 1 to 1000 |
| O=C(O)c1cnn(-c2ncc(C(=O)NCc3ccc(-c4ccccc4)cc3)cc2O)c1 [Compound 86, 1-(5-(([1,1′-Biphenyl]-4-ylmethyl)carbamoyl)-3-hydroxypyridin-2-yl)-1H-pyrazole-4-carboxylic acid] | 1 to 1000 |
| O=C(O)c1cnn(-c2cc(O)c(C(=O)NCc3ccc(C(F)(F)F)cc3)cn2)c1 [Compound 90, 1-(4-Hydroxy-5-((4-(trifluoromethyl)benzyl)carbamoyl)pyridin-2-yl)-1H-pyrazole-4-carboxylic acid] | 1 to 1000 |
| O=C(O)c1cnn(-c2cc(O)c(C(=O)NCc3ccc(-c4ccccc4)nc3)cn2)c1 [Compound 91, 1-(4-Hydroxy-5-(((6-phenylpyridin-3-yl)methyl)carbamoyl)pyridin-2-yl)-1H-pyrazole-4-carboxylic acid] | 1 to 1000 |
| COc1cc(-n2cc(C(=O)NCc3ccc(-c4ccccc4)cc3)cn2)ncc1C#N [Compound 93, N-([1,1′-Biphenyl]-4-ylmethyl)-1-(5-cyano-4-methoxypyridin-2-yl)-1H-pyrazole-4-carboxamide] | > 10000 |
| N#Cc1cnc(-n2cc(C(=O)NCc3ccc(-c4ccccc4)cc3)cn2)cc1O [Compound 95, N-([1,1′-Biphenyl]-4-ylmethyl)-1-(5-cyano-4-hydroxypyridin-2-yl)-1H-pyrazole-4-carboxamide] | 1 to 1000 |
| N#Cc1ccc(-n2cc(C(=O)NCc3ccc(-c4ccccc4)cc3)cn2)nc1 [Compound 97, N-([1,1′-Biphenyl]-4-ylmethyl)-1-(5-cyanopyridin-2-yl)-1H-pyrazole-4-carboxamide] | > 10000 |
| O=C(NCc1ccc(-c2ccccc2)cc1)c1cnn(-c2cc(O)ccn2)c1 [Compound 99, N-([1,1′-Biphenyl]-4-ylmethyl)-1-(4-hydroxypyridin-2-yl)-1H-pyrazole-4-carboxamide] | 1000 to 10000 |
| O=C(O)c1ccc(-n2cc(C(=O)NCc3ccc(-c4ccccc4)cc3)cn2)nc1 [Compound 101, 6-(4-(([1,1′-Biphenyl]-4-ylmethyl)carbamoyl)-1H-pyrazol-1-yl) nicotinic acid] | 1000 to 10000 |
| O=C(O)c1ccnc(-n2cc(C(=O)NCc3ccc(-c4ccccc4)cc3)cn2)c1 [Compound 103, 2-(4-(([1,1′-Biphenyl]-4-ylmethyl)carbamoyl)-1H-pyrazol-1-yl) isonicotinic acid] | > 10000 |
| O=C(Nc1ccc(-c2ccccc2)cc1)c1cnn(-c2cc(O)ccn2)c1 [Compound 108, N-([1,1′-Biphenyl]-4-yl)-1-(4-hydroxypyridin-2-yl)-1H-pyrazole-4-carboxamide] | > 10000 |
| COc1cc(C(=O)NCc2ccc(-c3ccccc3)cc2)cnc1-n1cc(C#N)cn1 [Compound 124, N-([1,1′-biphenyl]-4-ylmethyl)-6-(4-cyano-1H-pyrazol-1-yl)-5-methoxynicotinamide] | 1 to 1000 |
| N#Cc1cnn(-c2ncc(C(=O)NCc3ccc(-c4ccccc4)cc3)cc2O)c1 [Compound 125, N-([1,1′-biphenyl]-4-ylmethyl)-6-(4-cyano-1H-pyrazol-1-yl)-5-hydroxynicotinamide] | 1 to 1000 |
| O=C(O)c1cnn(-c2ncc(C(=O)NCC3CCC(C(F)(F)F)CC3)cc2O)c1 (centres unmarked) [Compound 129, 1-(3-hydroxy-5-(((4-(trifluoromethyl)cyclohexyl)methyl)carbamoyl)pyridin-2-yl)-1H-pyrazole-4-carboxylic acid] | 1 to 1000 |
| N#Cc1cnc(-n2cc(C(=O)NCc3ccc(-c4ccccc4)cc3)cn2)nc1O [Compound 158, N-([1,1′-biphenyl]-4-ylmethyl)-1-(5-cyano-4-hydroxypyrimidin-2-yl)-1H-pyrazole-4-carboxamide] | 1 to 1000 |
